The target in data set [1] is T1, IRE1 (Saccharomyces cerevisiae, UniProt P32361, K985A).
T1 sequence (P32361 658-1115 K985A): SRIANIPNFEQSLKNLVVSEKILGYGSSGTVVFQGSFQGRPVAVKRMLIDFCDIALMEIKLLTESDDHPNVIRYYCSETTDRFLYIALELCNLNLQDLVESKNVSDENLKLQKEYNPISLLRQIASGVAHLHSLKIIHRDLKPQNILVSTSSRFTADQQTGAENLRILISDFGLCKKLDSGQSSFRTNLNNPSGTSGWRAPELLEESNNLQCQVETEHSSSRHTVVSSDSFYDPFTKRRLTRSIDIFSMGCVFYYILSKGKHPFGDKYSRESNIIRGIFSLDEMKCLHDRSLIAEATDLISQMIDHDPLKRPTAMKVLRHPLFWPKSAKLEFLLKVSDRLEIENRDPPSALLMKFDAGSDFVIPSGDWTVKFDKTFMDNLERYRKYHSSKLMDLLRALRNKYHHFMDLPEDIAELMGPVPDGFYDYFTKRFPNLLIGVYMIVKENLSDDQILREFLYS
Briefly: RNase activation assay and DSS crosslinking at […] ADP. Format: biochemical.

Data set [2] deals with IRE1 (Saccharomyces cerevisiae, UniProt P32361). Nature of the data set: co-crystal structure with quercetin. Format: biochemical.
In data set [3] the target is T2, IRE1 (Saccharomyces cerevisiae, UniProt P32361, D797A).
T2 sequence (P32361 658-1115 D797A): T1 sequence (P32361 658-1115 K985A) with D140A, A328K
Nature of the data set: fluorescent RNase activation assay at […]. Format: biochemical.

The data set “cross-linking” deals with the molecule itself. Briefly: cross-linking.
The data set “AUC” deals with the molecule itself. Briefly: AUC.

Substitutions are numbered along the chain they refer to. Numbers in names are those of the source.

Chain of IRE1 (Saccharomyces cerevisiae, UniProt P32361) (P32361 658-1115): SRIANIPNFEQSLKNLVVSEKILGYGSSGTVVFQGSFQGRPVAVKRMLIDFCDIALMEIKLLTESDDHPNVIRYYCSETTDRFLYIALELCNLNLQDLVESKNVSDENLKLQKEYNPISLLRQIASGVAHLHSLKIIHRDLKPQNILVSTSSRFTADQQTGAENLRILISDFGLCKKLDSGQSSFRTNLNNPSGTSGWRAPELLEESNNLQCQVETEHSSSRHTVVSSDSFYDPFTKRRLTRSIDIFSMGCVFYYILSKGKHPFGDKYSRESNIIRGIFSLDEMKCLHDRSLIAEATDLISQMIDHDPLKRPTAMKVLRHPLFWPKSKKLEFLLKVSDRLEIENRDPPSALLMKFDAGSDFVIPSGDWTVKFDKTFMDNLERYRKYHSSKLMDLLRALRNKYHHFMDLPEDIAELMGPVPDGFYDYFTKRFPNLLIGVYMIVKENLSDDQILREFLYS

A word on the EC50: it is the concentration that produces a half-maximal response. Higher therefore signals lower potency in that assay. `Nc1ncnc2c1ncn2[C@@H]1O[C@H](COP(=O)(O)OP(=O)(O)O)[C@@H](O)[C@H]1O` [ADP]: the “RNase activation assay and DSS crosslinking at 2 mM ADP” value at IRE1 [1] is reported as “abolished by the Q-site mutant IRE1^K985A, although ADP-dependent crosslinking was still observed”. Further, on IRE1 [2], the EC50 was around 40 µM.
Consider `O=c1c(O)c(-c2ccc(O)c(O)c2)oc2cc(O)cc(O)c12` [quercetin], for which, at IRE1 [3], the “fluorescent RNase activation assay at 25 μM” value is given as “addition of quercetin substantially activates its RNase (Figure 7C). Such activation was Q-site dependent”.

B1: IRE1^K985A (Q-site mutant of yeast IRE1 658–1115) (domain or fragment, UniProt P32361 658-1115, looked up)
chain: T1 sequence (P32361 658-1115 K985A)
modifications: purified as a phosphorylated protein (sites not given)
In the case of B1, in the data set “cross-linking”, the binding result is on record as “binds”.

B2: cytosolic portion of yeast IRE1 (residues 658–1115; inclusive of both the kinase and KEN domains) (domain or fragment, UniProt P32361 658-1115, looked up)
chain: T1 sequence (P32361 658-1115 K985A) with A328K
modifications: phosphorylated when purified from bacteria (sites not given for this construct)
The term stoichiometry N denotes a count of units in the complex or per binding partner. With B2, the “stoichiometry N” value in “AUC” is 2.
